Measured values: paper PMC11683478, “Bioprospecting of culturable marine biofilm bacteria for novel antimicrobial peptides” (iMeta, 2024)
Where a SMILES comes first, the peptide text is derived from it. Where no end group is shown, it is not given here.

How the values were obtained:
[1] = tested on: sheep red blood cells; conditions: red cells of sheep, 1 h
Experimental: Freshly collected sheep blood was centrifuged at 3000 rpm for 10 min, and the supernatant was removed. The pellet was washed and resuspended with normal saline water to produce a 2% blood cell solution. Then, 400 μL of peptide solution was added to 100 μL of 2% blood cell solution to achieve final peptide concentrations of 8, 16, 32, 64, and 128 μg/mL. Normal saline water and Triton X‐100 normal saline solution (2%) were used as negative and positive controls, respectively. The samples were incubated in a water bath at 37°C for 1 h, followed by centrifugation at 3000 rpm for 10 min. Then, 200 μL of the supernatant was transferred to a 96‐well plate, and OD values were measured at a wavelength of 545 nm. The hemolysis rate of each sample was calculated using the following formula: Hemolysis ratio=OD545(experimental)−OD545(negative control)/OD545(positive control)−OD545(negative control)×100%.

[2] = tested on: human normal colon epithelial cells (NCM-460); format: cell-based; conditions: 48 h
Experimental: Human normal colon epithelial cells (NCM‐460) were purchased from the BeNa Culture Collection. Cytotoxicity was measured using the 3‐[4,5‐dimethylthiazol‐2‐yl]−2,5 diphenyl tetrazolium bromide (MTT) assay. The NCM‐460 cells were cultured in the Dulbecco's modified Eagle's medium (DMEM)‐H complete culture medium (90% DMEM‐H, 10% FBS, 10,000 U/mL penicillin, and 10,000 μg/mL streptomycin) to logarithmic growth phase. The suspension of cells was prepared at 10^5 cells/100 μL/well in a 96‐well plate. The peptides selected for the assay were dissolved in the DMEM‐H medium to prepare a 25 mg/mL stock solution, diluted for multiple gradients of 4–512 μg/mL. Afterwards, the peptides that had been diluted (100 μL/well) were introduced into the cells residing on a 96‐well plate. The DMEM‐H medium served as the blank group, the cell suspension as the control group, and the cell suspension combined with the peptide as the experimental group. Each group was conducted in three separate replicates. After 48 h of culture, 10 μL MTT was added to each well and incubated further at 37°C for 4 h. Then 100 μL Formazan solution was added and incubated further at 37°C for 4 h until all the purple crystals were dissolved. The absorbances were measured at OD570. Cell viability was determined by calculating cell viability using the following formula. Cell viability=OD570(experimental)−OD570(blank)/OD570(control)−OD570(blank)×100%.
Then, the CC50 value of each AMP molecule was calculated using an online tool: https://www.aatbio.com/tools/ic50-calculator.

[3] = tested on: eight pathogenic bacterial strains; assay: MIC, panel statement; format: cell-based; conditions: panel of eight strains, CAMHB, 37°C
Experimental: Eight bacterial strains were utilized in the antibacterial experiment. S. aureus ATCC 12600, B. subtilis ATCC 23857, E. coli ATCC 11775, and A. baumannii ATCC 19606 were purchased from Shanghai Beinuo Biology. M. luteus ATCC 4698 and S. bongori ATCC43975 were purchased from Shanghai Beisi Biotechnology. V. owensii ems001 and V. alginolyticus xv22 from the intestines of diseased shrimps were isolated in our laboratory. All strains were cultured in the cation‐adjusted Mueller‐Hinton broth (CAMHB) at 37°C to the logarithmic growth phase (OD600 = 0.5). Then, bacteria were gradient‐diluted using fresh CAMHB to a bacterial density of 5 × 10^5 CFU/mL. Antibacterial experiments were performed in a 96‐well plate with 200 μg/mL final peptide concentration. Four experimental groups were set up, including a blank control (200 μL CAMHB), a negative control (180 μL CAMHB plus 20 μL peptide), a positive control (180 μL bacterial culture plus 20 μL ultrapure water), and an experimental group (180 μL bacterial culture plus 20 μL peptide). Three biological replicates were conducted for each group, and OD600 values were measured after incubation at 37°C for 12 h. Every observed value was removed from the blank control group value. […] The MIC of a peptide against a bacterium was determined as the minimum peptide concentration at which there was no visible bacterial growth.

[4] = tested on: Staphylococcus aureus ATCC 12600; assay: Antibacterial screen at 200 μg/mL (cell density vs control); format: cell-based; conditions: peptide 200 μg/mL, CAMHB, 5 × 10^5 CFU/mL, 37°C, 12 h, OD600; control (no AMP) = 1; three biological replicates
In short: (§1)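 Log-phase bacteria (OD600 0.5) in CAMHB diluted to 5 × 10^5 CFU/mL and exposed to 200 μg/mL peptide for 12 h at 37 °C, triplicate biological replicates. OD600 corrected for blank and peptide-only controls, compared with untreated growth by t-test (p 0.05); MIC taken as lowest concentration with no visible growth.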

[5] = tested on: Bacillus subtilis ATCC 23857; assay: as above; format: cell-based; conditions: peptide 200 μg/mL, CAMHB, 5 × 10^5 CFU/mL, 37°C, 12 h, OD600; control (no AMP) = 1; three biological replicates
In short: as §1

[6] = tested on: Vibrio owensii ems001; assay: as above; format: cell-based; conditions: peptide 200 μg/mL, CAMHB, 5 × 10^5 CFU/mL, 37°C, 12 h, OD600; control (no AMP) = 1; three biological replicates
In short: as §1

[7] = tested on: Vibrio alginolyticus xv22; assay: as above; format: cell-based; conditions: peptide 200 μg/mL, CAMHB, 5 × 10^5 CFU/mL, 37°C, 12 h, OD600; control (no AMP) = 1; three biological replicates
In short: as §1

[8] = tested on: Salmonella bongori ATCC 43975; assay: as above; format: cell-based; conditions: peptide 200 μg/mL, CAMHB, 5 × 10^5 CFU/mL, 37°C, 12 h, OD600; control (no AMP) = 1; three biological replicates
In short: as §1

[9] = tested on: Escherichia coli ATCC 11775; assay: as above; format: cell-based; conditions: peptide 200 μg/mL, CAMHB, 5 × 10^5 CFU/mL, 37°C, 12 h, OD600; control (no AMP) = 1; three biological replicates
In short: as §1

[10] = tested on: Acinetobacter baumannii ATCC 19606; assay: as above; format: cell-based; conditions: peptide 200 μg/mL, CAMHB, 5 × 10^5 CFU/mL, 37°C, 12 h, OD600; control (no AMP) = 1; three biological replicates
In short: as §1

[11] = tested on: Micrococcus luteus ATCC 4698; assay: as above; format: cell-based; conditions: peptide 200 μg/mL, CAMHB, 5 × 10^5 CFU/mL, 37°C, 12 h, OD600; control (no AMP) = 1; three biological replicates
In short: as §1

Compound	Hemolysis ratio (%) at 8μg/mL [1] [%]	Hemolysis ratio (%) at 16μg/mL [1] [%]	Hemolysis ratio (%) at 32μg/mL [1] [%]	Hemolysis ratio (%) at 64μg/mL [1] [%]	Hemolysis ratio (%) at 128μg/mL [1] [%]	Cytotoxicity CC50 [2] [µg/mL]	MIC against nearly all strains [3] [µg/mL]	cell density relative to control, S. aureus ATCC 12600 [4]	cell density relative to control, B. subtilis ATCC 23857 [5]	cell density relative to control, V. owensii ems001 [6]	cell density relative to control, V. alginolyticus xv22 [7]	cell density relative to control, S. bongori ATCC 43975 [8]	cell density relative to control, E. coli ATCC 11775 [9]	cell density relative to control, A. baumannii ATCC 19606 [10]	cell density relative to control, M. luteus ATCC 4698 [11]
CSCC[C@H](N)C(=O)N[C@@H](CCCCN)C(=O)N1CCC[C@H]1C(=O)N[C@@H](CS)C(=O)N[C@@H](CCCNC(=N)N)C(=O)N[C@@H](CCCCN)C(=O)N[C@@H](C)C(=O)N[C@@H](CC(C)C)C(=O)N[C@@H](Cc1c[nH]c2ccccc12)C(=O)N[C@@H](CO)C(=O)N[C@H](C(=O)N[C@@H](Cc1c[nH]c2ccccc12)C(=O)N[C@@H](CCCCN)C(=O)N[C@@H](CCCNC(=N)N)C(=O)N[C@@H](CCCCN)C(=O)N[C@@H](CS)C(=O)N[C@@H](CCCNC(=N)N)C(=O)N[C@@H](Cc1c[nH]cn1)C(=O)N[C@@H](CCC(=O)O)C(=O)O)C(C)C [Cand-196] (H-MKPCRKALWSVWKRKCRHE-OH)	1.481	2.356	4.680	5.976	13.102	18.881	–	–	–	–	–	–	–	–	–
MKKCRRKVLFGLWRRN [Cand-77]	3.431	4.302	5.822	8.387	12.471	45.263	≤ 32	–	–	–	–	–	–	–	–
MRCSLKKIISTFFS [Cand-71]	6.779	7.213	15.000	–	19.534	23.841	–	–	–	–	–	–	–	–	–
MRIVMCRIGGRL [Cand-102]	6.842	37.647	54.569	–	41.034	5.897	–	–	–	–	–	–	–	–	–
MVAVMKKLLLKYALK [Cand-82]	2.395	3.214	3.498	2.486	–	10.864	–	–	–	–	–	–	–	–	–
MWAVARGRR [Cand-195, chemically synthesized candidate AMP predicted from marine biofilm bacteria]	–	–	–	–	–	–	–	0.945	0.676	0.958	1	1	1	1	0.987
MWKLPKWRNGRRRGFKIPRW [Cand-109, chemically synthesized candidate AMP predicted from marine biofilm bacteria]	–	–	–	–	–	–	–	0	0.012	0.039	0.019	0.019	0.002	0.01	0.02
MWTIYSGIKRSLHYCRRRGYYCSRYGYYS [Cand-43, chemically synthesized candidate AMP predicted from marine biofilm bacteria]	–	–	–	–	–	–	–	0.031	0.67	0.215	0.124	0	0	0.385	0.297
MWTVRPRICAARGRL [Cand-172, chemically synthesized candidate AMP predicted from marine biofilm bacteria]	–	–	–	–	–	–	–	0	0	0	0	0.898	1	1	0.9
MWWSKSIHQACFTRYRGYCRWCCTFSIRSCRY [Cand-3, chemically synthesized candidate AMP predicted from marine biofilm bacteria]	–	–	–	–	–	–	–	0	1	0	0	0.438	0.786	0.702	1
MWWSKSIHQASFTRYRSYCRGCCTFSIRSCRYKRRII [Cand-180, chemically synthesized candidate AMP predicted from marine biofilm bacteria]	–	–	–	–	–	–	–	0.107	0	0	0	0.025	0	0	0
MYSVWPKSLRSVAGRGPKHRC [Cand-139, chemically synthesized candidate AMP predicted from marine biofilm bacteria]	–	–	–	–	–	–	–	0	0.931	0.342	0.013	0.426	0.764	0.959	1
